Data on five cell lines can be found in the supplement of paper PMC10307832.

What all share (assay): relative viability (nuclei count vs DMSO), 5 days (fraction); higher = more cells survive
Compound in the assay “Dinaciclib + Navitoclax”: CCc1cnn2c(NCc3ccc[n+]([O-])c3)cc(N3CCCC[C@H]3CCO)nc12 [Dinaciclib] + CC1(C)CCC(c2ccc(Cl)cc2)=C(CN2CCN(c3ccc(C(=O)NS(=O)(=O)c4ccc(N[C@H](CCN5CCOCC5)CSc5ccccc5)c(S(=O)(=O)C(F)(F)F)c4)cc3)CC2)C1 [Navitoclax] (partner 0.5 µM)
The procedure, abridged: (§1)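 Relative viability is defined as nuclei in treated wells over nuclei in vehicle wells. Duplicate plates were run and medians reported. Lung cancer cell lines in 1536-well plates were dosed by pin tool one day after seeding, with one drug or with a fixed anchor-drug dose plus five library-drug doses (not always all listed) in √10 steps, and nuclei were counted after 5 days.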

Compound in the assay “Dinaciclib + Foretinib”: CCc1cnn2c(NCc3ccc[n+]([O-])c3)cc(N3CCCC[C@H]3CCO)nc12 [Dinaciclib] + COc1cc2c(Oc3ccc(NC(=O)C4(C(=O)Nc5ccc(F)cc5)CC4)cc3F)ccnc2cc1OCCCN1CCOCC1 [Foretinib] (partner 0.25 µM)
The method in brief: as §1

Compound in the assay “Dinaciclib + Dasatinib”: CCc1cnn2c(NCc3ccc[n+]([O-])c3)cc(N3CCCC[C@H]3CCO)nc12 [Dinaciclib] + Cc1nc(Nc2ncc(C(=O)Nc3c(C)cccc3Cl)s2)cc(N2CCN(CCO)CC2)n1 [Dasatinib] (partner 0.075 µM)
The procedure, abridged: as §1

Compound in the assay “Dinaciclib + Decitabine”: CCc1cnn2c(NCc3ccc[n+]([O-])c3)cc(N3CCCC[C@H]3CCO)nc12 [Dinaciclib] + Nc1ncn([C@H]2C[C@H](O)[C@@H](CO)O2)c(=O)n1 [Decitabine] (partner 2 µM)
The method in brief: as §1

Compound in the assay “Dinaciclib + Olaparib”: CCc1cnn2c(NCc3ccc[n+]([O-])c3)cc(N3CCCC[C@H]3CCO)nc12 [Dinaciclib] + O=C(c1cc(Cc2n[nH]c(=O)c3ccccc23)ccc1F)N1CCN(C(=O)C2CC2)CC1 [Olaparib] (partner 8 µM)
The method in brief:
as §1

On to NCI-H1975, for which the relative viability in the assay with Dinaciclib + Navitoclax (first compound 0.009487 µM) was 1.08; with Dinaciclib + Navitoclax (first compound 0.03 µM), 0.143; in the assay with Dinaciclib + Navitoclax (first compound 0.09487 µM) it was 0.137; with Dinaciclib + Navitoclax (first compound 0.3 µM), 0.128; in the assay with Dinaciclib + Foretinib (first compound 0.009487 µM) it was 0.868; in the assay with Dinaciclib + Foretinib (first compound 0.03 µM), 0.185. In addition, the relative viability with Dinaciclib + Foretinib (first compound 0.09487 µM) was 0.107; in the assay with Dinaciclib + Foretinib (first compound 0.3 µM), 0.099; with Dinaciclib + Dasatinib (first compound 0.009487 µM), 0.483; with Dinaciclib + Dasatinib (first compound 0.03 µM), 0.263; with Dinaciclib + Dasatinib (first compound 0.09487 µM), 0.0967; with Dinaciclib + Dasatinib (first compound 0.3 µM), 0.0711. Moreover, the relative viability in the assay with Dinaciclib + Decitabine (first compound 0.009487 µM) worked out at 0.327; in the assay with Dinaciclib + Decitabine (first compound 0.03 µM), 0.176; with Dinaciclib + Decitabine (first compound 0.09487 µM), 0.135; in the assay with Dinaciclib + Decitabine (first compound 0.3 µM), 0.143; with Dinaciclib + Olaparib (first compound 0.009487 µM), 0.702; with Dinaciclib + Olaparib (first compound 0.03 µM), 0.26. Further, the relative viability with Dinaciclib + Olaparib (first compound 0.09487 µM) is 0.151; in the assay with Dinaciclib + Olaparib (first compound 0.3 µM), 0.114.

Take NCI-H647: the relative viability turned out to be 0.764 with Dinaciclib + Navitoclax (first compound 0.009487 µM); 0.0454 in the assay with Dinaciclib + Navitoclax (first compound 0.03 µM); 0.0549 in the assay with Dinaciclib + Navitoclax (first compound 0.09487 µM); 0.0648 in the assay with Dinaciclib + Navitoclax (first compound 0.3 µM); 0.687 with Dinaciclib + Foretinib (first compound 0.009487 µM); 0.221 in the assay with Dinaciclib + Foretinib (first compound 0.03 µM). The relative viability in the assay with Dinaciclib + Foretinib (first compound 0.09487 µM) is 0.0703; with Dinaciclib + Foretinib (first compound 0.3 µM), 0.0856; with Dinaciclib + Dasatinib (first compound 0.009487 µM), 0.104; in the assay with Dinaciclib + Dasatinib (first compound 0.03 µM), 0.0306; with Dinaciclib + Dasatinib (first compound 0.09487 µM), 0.0319; with Dinaciclib + Dasatinib (first compound 0.3 µM) it was 0.042. In addition, the relative viability with Dinaciclib + Decitabine (first compound 0.009487 µM) was 0.296; with Dinaciclib + Decitabine (first compound 0.03 µM), 0.131; with Dinaciclib + Decitabine (first compound 0.09487 µM), 0.0349; in the assay with Dinaciclib + Decitabine (first compound 0.3 µM), 0.0773; with Dinaciclib + Olaparib (first compound 0.009487 µM) it was 0.258; with Dinaciclib + Olaparib (first compound 0.03 µM), 0.0359. In addition, the results for the relative viability with Dinaciclib + Olaparib (first compound 0.09487 µM) and with Dinaciclib + Olaparib (first compound 0.3 µM) were 0.0547 and 0.051, respectively.

For A-427, the relative viability with Dinaciclib + Navitoclax (first compound 0.009487 µM) was found to be 0.94; in the assay with Dinaciclib + Navitoclax (first compound 0.03 µM) it was 0.434; in the assay with Dinaciclib + Navitoclax (first compound 0.09487 µM), 0.089; in the assay with Dinaciclib + Navitoclax (first compound 0.3 µM) it was 0.0921; in the assay with Dinaciclib + Foretinib (first compound 0.009487 µM) it was 0.955; with Dinaciclib + Foretinib (first compound 0.03 µM), 0.117. For the same cell line, the relative viability is 0.0874 with Dinaciclib + Foretinib (first compound 0.09487 µM); 0.0871 with Dinaciclib + Foretinib (first compound 0.3 µM); 0.486 in the assay with Dinaciclib + Dasatinib (first compound 0.009487 µM); 0.111 with Dinaciclib + Dasatinib (first compound 0.03 µM); 0.0662 with Dinaciclib + Dasatinib (first compound 0.09487 µM); 0.0725 with Dinaciclib + Dasatinib (first compound 0.3 µM). For the same cell line, the relative viability with Dinaciclib + Decitabine (first compound 0.009487 µM) was 0.508; with Dinaciclib + Decitabine (first compound 0.03 µM) it was 0.153; with Dinaciclib + Decitabine (first compound 0.09487 µM) it was 0.119; in the assay with Dinaciclib + Decitabine (first compound 0.3 µM), 0.116; with Dinaciclib + Olaparib (first compound 0.009487 µM), 0.459; with Dinaciclib + Olaparib (first compound 0.03 µM), 0.104. For the same cell line, the relative viability with Dinaciclib + Olaparib (first compound 0.09487 µM) was 0.0978; with Dinaciclib + Olaparib (first compound 0.3 µM) it was 0.101.

For the cell line LXF-289, the relative viability turned out to be 0.921 with Dinaciclib + Navitoclax (first compound 0.009487 µM); 0.189 with Dinaciclib + Navitoclax (first compound 0.03 µM); 0.0659 with Dinaciclib + Navitoclax (first compound 0.09487 µM); 0.0645 with Dinaciclib + Navitoclax (first compound 0.3 µM); 1.03 with Dinaciclib + Foretinib (first compound 0.009487 µM); 0.706 in the assay with Dinaciclib + Foretinib (first compound 0.03 µM). The relative viability with Dinaciclib + Foretinib (first compound 0.09487 µM) was found to be 0.0732; in the assay with Dinaciclib + Foretinib (first compound 0.3 µM), 0.0742; with Dinaciclib + Dasatinib (first compound 0.009487 µM), 0.282; with Dinaciclib + Dasatinib (first compound 0.03 µM), 0.0717; with Dinaciclib + Dasatinib (first compound 0.09487 µM) it was 0.0492; with Dinaciclib + Dasatinib (first compound 0.3 µM), 0.0472. For the same cell line, the relative viability in the assay with Dinaciclib + Decitabine (first compound 0.009487 µM) was 0.356; with Dinaciclib + Decitabine (first compound 0.03 µM), 0.293; in the assay with Dinaciclib + Decitabine (first compound 0.09487 µM), 0.109; with Dinaciclib + Decitabine (first compound 0.3 µM) it was 0.0948; with Dinaciclib + Olaparib (first compound 0.009487 µM) it was 1.01; with Dinaciclib + Olaparib (first compound 0.03 µM) it was 0.103. Further, the relative viability in the assay with Dinaciclib + Olaparib (first compound 0.09487 µM) stood at 0.0785; with Dinaciclib + Olaparib (first compound 0.3 µM) it was 0.0985.

As to NCI-H727, the relative viability with Dinaciclib + Navitoclax (first compound 0.009487 µM) was 0.37; with Dinaciclib + Navitoclax (first compound 0.03 µM), 0.0912; with Dinaciclib + Navitoclax (first compound 0.09487 µM) it was 0.0827; in the assay with Dinaciclib + Navitoclax (first compound 0.3 µM), 0.0949; with Dinaciclib + Foretinib (first compound 0.009487 µM), 1.05; with Dinaciclib + Foretinib (first compound 0.03 µM), 0.283. Also, the relative viability in the assay with Dinaciclib + Foretinib (first compound 0.09487 µM) was determined as 0.259; with Dinaciclib + Foretinib (first compound 0.3 µM), 0.249; with Dinaciclib + Dasatinib (first compound 0.009487 µM), 0.344; in the assay with Dinaciclib + Dasatinib (first compound 0.03 µM), 0.263; in the assay with Dinaciclib + Dasatinib (first compound 0.09487 µM) it was 0.209; in the assay with Dinaciclib + Dasatinib (first compound 0.3 µM) it was 0.325. Further, the relative viability was determined as 0.916 with Dinaciclib + Decitabine (first compound 0.009487 µM); 0.37 with Dinaciclib + Decitabine (first compound 0.03 µM); 0.413 with Dinaciclib + Decitabine (first compound 0.09487 µM); 0.373 in the assay with Dinaciclib + Decitabine (first compound 0.3 µM); 0.782 with Dinaciclib + Olaparib (first compound 0.009487 µM); 0.314 with Dinaciclib + Olaparib (first compound 0.03 µM). Besides, the relative viability turned out to be 0.351 with Dinaciclib + Olaparib (first compound 0.09487 µM) and 0.328 with Dinaciclib + Olaparib (first compound 0.3 µM).
